Experimental data taken from patent US9556228B2 (Universitaet Leipzig, priority 2011, dated 2017).
≈ marks a conversion by molar mass, not a printed value. Peptide text beside a SMILES is read from it.

Experiments:
Assay type in all cases: cell-based
[1] = tested on: Pseudomonas aeruginosa PAO1 (wt strain); conditions: for Improvement over Native Sequence (SEQ No. 2) P. aeruginosa PAO1 wt: fold, from MIC in 1/8 MHB
Experimental: (§1) The minimum inhibitory concentrations (MIC) of the peptides were determined in a double assay of triplicates using a positive control sample (gentamycin) and a negative control sample (0.9% NaCl solution), according to a modified protocol from Wiegand et al. (Wiegand, 2008).
(§2) For this purpose, the peptides were dissolved in water and were diluted in a double dilution series with 1/8 MH (eight-fold diluted Mueller-Hinton-Medium—2.6 g/L, Merck) in sterile 96-well, plates (Greiner Bio-One GmbH) in twelve dilution steps from 128 μg/mL to 62.5 ng/mL. Overnight cultures were adjusted using ⅛ MHB to approximately 1.5×10^7 colony forming units per mL. Of these, 50 μL of peptide solution per well was mixed with 50 μL bacteria solution each to obtain an initial concentration of […] bacteria per well. After 20 hours of incubation at 37′C, the absorption was determined at 595 nm (microplate reader, Wallac Victor3, Perkin Elmer). The minimum inhibitory concentration was identified as the lowest peptide concentration at which no bacterial growth could be detected.
(§3) In the experiment, the antibacterial activity of the peptides according to the invention in relation to the following bacterial strains was analyzed: Pseudomonas aeruginosa PAO1 (wt strain), Pseudomonas aeruginosa DSM 9644, Staphylococcus aureus DSM 1104/ATCC 25923, Staphylococcus aureus ATCC 6247, Escherichia coli UB 1005 (F—, nalA37, metB1) and Escherichia coli ATCC25922.

[2] = tested on: Staphylococcus aureus DSM 1104/ATCC 25923; conditions: for MIC S. aureus ATCC 25923: DSM 1104; for Improvement over Native Sequence (SEQ No. 2) S. aureus ATCC 25923: fold, from MIC in 1/8 MHB
Experimental: as §1, §2, §3

Escherichia coli UB 1005 = assay: Minimum inhibitory concentration (MIC), broth microdilution; conditions: for MIC E. coli UB1005: 1/8 MHB, Table 4; for Improvement over Native Sequence (SEQ No. 2) E. coli UB1005: fold, from MIC in 1/8 MHB
Experimental: as §1, §2, §3

CC[C@H](C)[C@H](NC(=O)[C@H](Cc1ccc(O)cc1)NC(=O)[C@@H](NC(=O)[C@@H]1CCCN1C(=O)[C@H](CCCNC(=N)N)NC(=O)[C@H](CC(N)=O)NC(=O)[C@H](Cc1c[nH]c2ccccc12)NC(=O)CN)C(C)C)C(=O)N1CCC[C@H]1C(=O)N[C@@H](CCC(N)=O)C(=O)N1CCC[C@H]1C(=O)N[C@@H](CCCNC(=N)N)C(=O)N1CCC[C@H]1C(=O)N1CCC[C@H]1C(=O)N[C@@H](Cc1c[nH]cn1)C(=O)N1CCC[C@H]1C(=O)N[C@@H](CCCNC(=N)N)C(=O)N[C@@H](CC(C)C)C(N)=O [compound 54] (H-GWNRPVYIPQPRPPHPRL-NH2; N-terminus assumed)
MIC P. aeruginosa PAO1 wt [1]: 64 µg/mL (≈ 29.4 µM) | Improvement over Native Sequence (SEQ No. 2) P. aeruginosa PAO1 wt [1]: 8 | MIC S. aureus ATCC 25923 [2]: 63 µg/mL (≈ 28.9 µM) | Improvement over Native Sequence (SEQ No. 2) S. aureus ATCC 25923 [2]: 4 | MIC E. coli UB1005 (Escherichia coli UB 1005): 1.25 µg/mL (≈ 0.574 µM) | Improvement over Native Sequence (SEQ No. 2) E. coli UB1005 (Escherichia coli UB 1005): 4

CC[C@H](C)[C@H](NC(=O)[C@H](Cc1ccc(O)cc1)NC(=O)[C@@H](NC(=O)[C@@H]1CCCN1C(=O)[C@H](CCCNC(=N)N)NC(=O)[C@H](CC(N)=O)NC(=O)[C@H](CCCNC(=N)N)NC(=O)CN)C(C)C)C(=O)N1CCC[C@H]1C(=O)N[C@@H](CCC(N)=O)C(=O)N1CCC[C@H]1C(=O)N[C@@H](CCCNC(=N)N)C(=O)N1CCC[C@H]1C(=O)N1CCC[C@H]1C(=O)N[C@@H](Cc1c[nH]cn1)C(=O)N1CCC[C@H]1C(=O)N[C@@H](CCCNC(=N)N)C(=O)N[C@@H](CC(C)C)C(N)=O [compound 55] (H-GRNRPVYIPQPRPPHPRL-NH2; N-terminus assumed)
MIC P. aeruginosa PAO1 wt [1]: 64 to 128 µg/mL | Improvement over Native Sequence (SEQ No. 2) P. aeruginosa PAO1 wt [1]: 4-8 | MIC S. aureus ATCC 25923 [2]: 32 µg/mL (≈ 14.9 µM) | Improvement over Native Sequence (SEQ No. 2) S. aureus ATCC 25923 [2]: 8 | MIC E. coli UB1005 (Escherichia coli UB 1005): 0.625 µg/mL (≈ 0.291 µM) | Improvement over Native Sequence (SEQ No. 2) E. coli UB1005 (Escherichia coli UB 1005): 8

CC[C@H](C)[C@H](NC(=O)[C@H](Cc1ccc(O)cc1)NC(=O)[C@@H](NC(=O)[C@H](CS)NC(=O)[C@H](CCCNC(=N)N)NC(=O)[C@H](CC(N)=O)NC(=O)[C@H](CC(N)=O)NC(=O)CN)C(C)C)C(=O)N1CCC[C@H]1C(=O)N[C@@H](CCC(N)=O)C(=O)N1CCC[C@H]1C(=O)N[C@@H](CCCNC(=N)N)C(=O)N1CCC[C@H]1C(=O)N1CCC[C@H]1C(=O)N[C@@H](Cc1c[nH]cn1)C(=O)N1CCC[C@H]1C(=O)N[C@@H](CCCNC(=N)N)C(=O)N[C@@H](CC(C)C)C(N)=O [compound 56] (H-GNNRCVYIPQPRPPHPRL-NH2; N-terminus assumed)
MIC P. aeruginosa PAO1 wt [1]: 125 µg/mL (≈ 59.1 µM) | Improvement over Native Sequence (SEQ No. 2) P. aeruginosa PAO1 wt [1]: 4 | MIC S. aureus ATCC 25923 [2]: 31 µg/mL (≈ 14.7 µM) | Improvement over Native Sequence (SEQ No. 2) S. aureus ATCC 25923 [2]: 8 | MIC E. coli UB1005 (Escherichia coli UB 1005): 10 µg/mL (≈ 4.73 µM) | Improvement over Native Sequence (SEQ No. 2) E. coli UB1005 (Escherichia coli UB 1005): 1

CC[C@H](C)[C@H](NC(=O)[C@H](Cc1ccc(O)cc1)NC(=O)[C@@H](NC(=O)[C@H](CCCNC(=N)N)NC(=O)[C@H](CCCNC(=N)N)NC(=O)[C@H](CC(N)=O)NC(=O)[C@H](CC(N)=O)NC(=O)CN)C(C)C)C(=O)N1CCC[C@H]1C(=O)N[C@@H](CCC(N)=O)C(=O)N1CCC[C@H]1C(=O)N[C@@H](CCCNC(=N)N)C(=O)N1CCC[C@H]1C(=O)N1CCC[C@H]1C(=O)N[C@@H](Cc1c[nH]cn1)C(=O)N1CCC[C@H]1C(=O)N[C@@H](CCCNC(=N)N)C(=O)N[C@@H](CC(C)C)C(N)=O [compound 57] (H-GNNRRVYIPQPRPPHPRL-NH2; N-terminus assumed)
MIC P. aeruginosa PAO1 wt [1]: 64 µg/mL (≈ 29.5 µM) | Improvement over Native Sequence (SEQ No. 2) P. aeruginosa PAO1 wt [1]: 8 | MIC S. aureus ATCC 25923 [2]: 32 µg/mL (≈ 14.8 µM) | Improvement over Native Sequence (SEQ No. 2) S. aureus ATCC 25923 [2]: 8 | MIC E. coli UB1005 (Escherichia coli UB 1005): 5 µg/mL (≈ 2.31 µM) | Improvement over Native Sequence (SEQ No. 2) E. coli UB1005 (Escherichia coli UB 1005): 1

CC(C)C[C@H](NC(=O)[C@H](CCCNC(=N)N)NC(=O)[C@@H]1CCCN1C(=O)[C@H](Cc1c[nH]cn1)NC(=O)[C@@H]1CCCN1C(=O)[C@@H]1CCCN1C(=O)[C@H](CCCNC(=N)N)NC(=O)[C@@H]1CCCN1C(=O)[C@H](CCC(N)=O)NC(=O)[C@@H]1CCCN1C(=O)[C@H](CCCNC(=N)N)NC(=O)[C@H](Cc1ccc(O)cc1)NC(=O)[C@@H](NC(=O)[C@@H]1CCCN1C(=O)[C@H](CCCNC(=N)N)NC(=O)[C@H](CC(N)=O)NC(=O)[C@H](CC(N)=O)NC(=O)CN)C(C)C)C(N)=O [compound 58] (H-GNNRPVYRPQPRPPHPRL-NH2; N-terminus assumed)
MIC P. aeruginosa PAO1 wt [1]: 64 µg/mL (≈ 29.8 µM) | Improvement over Native Sequence (SEQ No. 2) P. aeruginosa PAO1 wt [1]: 8 | MIC S. aureus ATCC 25923 [2]: 63 µg/mL (≈ 29.3 µM) | Improvement over Native Sequence (SEQ No. 2) S. aureus ATCC 25923 [2]: 4 | MIC E. coli UB1005 (Escherichia coli UB 1005): 0.313 µg/mL (≈ 0.146 µM) | Improvement over Native Sequence (SEQ No. 2) E. coli UB1005 (Escherichia coli UB 1005): 16
